# Test results taken from the supplement of paper PMC7806825.
# Test system: McpC ligand-binding domain (Salmonella Typhimurium SL1344)
# Test: protein melting temperature (Tm) in presence of compound (degrees C); higher = more thermal stabilisation (possible ligand binding)
# Conditions: Biolog plate: PM01; compound stock concentration: 10-20 mM, 2 uL in 10 uL reaction
row,protein melting temperature,Compound
1,44.9,OC[C@H]1O[C@@H](O[C@@H]2[C@@H](CO)OC(O)(CO)[C@H]2O)[C@H](O)[C@@H](O)[C@H]1O (mixture of isomers) [Lactulose]
2,44.6,CC(=O)CC(=O)O [Acetoacetic acid]
3,43.6,O=C(O)C[C@@H](O)C(=O)O [D-Malic acid]

# The next lines start with the compound.
row,Compound,protein melting temperature
1,O=C(O)CC(O)C(=O)O (racemic) [DL-Malic acid],44.5
2,O=P(O)(O)OC[C@H](O)CO (racemic) [DL-a-Glycerol Phosphate],44.6
3,"CC(O)CO (stereo not given) [1,2-Propanediol]",44.8
4,NCCO [2-Aminoethanol],44.3
5,Nc1ncnc2c1ncn2[C@H]1C[C@H](O)[C@@H](CO)O1 [2`-Deoxyadenosine],43.9
6,Nc1ncnc2c1ncn2[C@@H]1O[C@H](CO)[C@@H](O)[C@H]1O [Adenosine],43.8
7,OCC(O)C(O)C(O)CO (stereo not given) [Adonitol],44.8
8,C[C@H](N)C(=O)NCC(=O)O [Ala-Gly],44.9
9,O=C(O)CC(Br)C(=O)O (stereo not given) [Bromosuccinic acid],44.8
10,C[C@@H](N)C(=O)O [D-Alanine],43.9
11,N[C@H](CC(=O)O)C(=O)O [D-Aspartic acid],44.2
12,O=C(CO)[C@@H](O)[C@H](O)[C@H](O)CO [D-Fructose],44.3
13,OC[C@H]1OC(O)[C@H](O)[C@@H](O)[C@H]1O (stereo partly drawn) [D-Galactose],44.8
14,O=C(O)[C@H]1OC(O)[C@H](O)[C@@H](O)[C@H]1O (stereo partly drawn) [D-Galacturonic acid],44.4
15,O=C[C@H](O)[C@@H](O)[C@H](O)[C@H](O)COP(=O)(O)O [D-Glucose-6-Phosphate],44.6
16,OC[C@@H](O)[C@@H](O)[C@H](O)[C@H](O)CO [D-Mannitol],44.7

# Same assay, conditions: Biolog plate: PM02A; compound stock concentration: 10-20 mM, 2 uL in 10 uL reaction
row,protein melting temperature,Compound
1,44.2,"CC(O)C(C)O (stereo not given) [2,3-Butanediol]"
2,43.9,"CC(=O)C(C)=O [2,3-Butanedione]"
3,43.5,CC(=O)C(C)O (stereo not given) [3-Hydroxy-2-butanone]
4,44.5,O=C[C@@H](O)[C@H](O[C@@H]1O[C@H](CO)[C@H](O)[C@H](O)[C@H]1O)[C@H](O)CO [3-O-b-D-Galactopyranosyl-D-Arabinose]
5,43.3,O=C(O)c1ccc(O)cc1 [4-Hydroxybenzoic acid]
6,43.9,O=C(CO)[C@@H](O)[C@H](O)[C@@H](O)C(=O)O [5-Keto-D-Gluconic acid]
7,43.7,OC[C@H]1O[C@@H](Oc2ccc(O)cc2)[C@H](O)[C@@H](O)[C@@H]1O [Arbutin]
8,43.3,CCCCCC(=O)O [Caproic acid]
9,43.7,C/C(=C/C(=O)O)C(=O)O [Citraconic acid]
10,43.6,OC1OC[C@@H](O)[C@@H](O)[C@@H]1O (stereo partly drawn) [D-Arabinose]
11,44.4,COC(=O)[C@@H](C)O [D-Lactic acid Methyl Ester]
12,44.7,OC[C@@H](O)[C@@H](O[C@@H]1O[C@H](CO)[C@H](O)[C@H](O)[C@H]1O)[C@H](O)[C@@H](O)CO [D-Lactitol]

# Second part, the compound before the results:
row,Compound,protein melting temperature
1,"C[N+](C)(C)CC(O)CC(=O)[O-] (racemic) [D,L-Carnitine]",44.4
2,"NCC(O)c1ccc(O)cc1 (racemic) [D,L-Octopamine]",43.9
3,O=C(O)c1ccccc1O [2-Hydroxybenzoic acid],45.4
4,N#C[C@H](O[C@@H]1O[C@H](CO[C@@H]2O[C@H](CO)[C@@H](O)[C@H](O)[C@H]2O)[C@@H](O)[C@H](O)[C@H]1O)c1ccccc1 [Amygdalin],44.3
5,CCCCCCCCCC(=O)O [Capric acid],42.4
6,CC(O)(CC(=O)O)C(=O)O (stereo not given) [Citramalic acid],44.1
7,OC[C@@H](O)C(O)[C@H](O)CO [D-Arabitol],44.4
8,C[C@@H](O)[C@H](O)[C@H](O)[C@@H](O)C=O [D-Fucose],43.3

# Same assay, conditions: Biolog plate: PM03B; compound stock concentration: 10-20 mM, 2 uL in 10 uL reaction
row,protein melting temperature,Compound
1,45.6,CC(O)C(N)=O (racemic) [DL-Lactamide]
2,44.3,CCC(N)C(=O)O (racemic) [DL-a-Amino-N-Butyric acid]
3,44.1,NCCCCN=C(N)N [Agmatine]
4,45.1,C[C@H](N)C(=O)N[C@@H](CCC(N)=O)C(=O)O [Ala-Gln]
5,45.3,C[C@H](N)C(=O)N[C@@H](Cc1cnc[nH]1)C(=O)O [Ala-His]
6,45.1,C[C@H](N)C(=O)N[C@H](C(=O)O)[C@@H](C)O [Ala-Thr]
7,44.8,NC(=O)C[C@@H](N)C(=O)O [D-Asparagine]
8,45,N[C@H](CCC(=O)O)C(=O)O [D-Glutamic acid]

# Further lines, the compound ahead of its results:
row,Compound,protein melting temperature
1,Nc1[nH]cnc2ncnc1-2 [Adenine],45.2
2,Nc1ncnc2c1ncn2[C@@H]1O[C@H](CO)[C@@H](O)[C@H]1O [Adenosine],45.4
3,C[C@H](N)C(=O)N[C@@H](CC(=O)O)C(=O)O [Ala-Asp],45
4,C[C@H](N)C(=O)N[C@@H](CCC(=O)O)C(=O)O [Ala-Glu],45.2
5,C[C@H](N)C(=O)NCC(=O)O [Ala-Gly],45.2
6,NC(=O)NC1NC(=O)NC1=O (stereo not given) [Allantoin],44.2
7,O=C1NC(=O)C(=O)C(=O)N1 [Alloxan],44.3
8,NC(=O)NC(N)=O [Biuret],44.2
9,Nc1ccn([C@@H]2O[C@H](CO)[C@@H](O)[C@H]2O)c(=O)n1 [Cytidine],44.7
10,Nc1cc[nH]c(=O)n1 [Cytosine],45.2
11,C[C@@H](N)C(=O)O [D-Alanine],44.9
12,N[C@H](CC(=O)O)C(=O)O [D-Aspartic acid],44.9
13,NCCCC[C@@H](N)C(=O)O [D-Lysine],44.3

# Same assay, conditions: Biolog plate: PM04A; compound stock concentration: 10-20 mM, 2 uL in 10 uL reaction
row,protein melting temperature,Compound
1,44.4,NC(=O)CCCCC1CCSS1 (racemic) [DL-Lipoamide]
2,43.7,"CSCCC(NC(C)=O)C(=O)O (racemic) [N-Acetyl-D,L-Methionine]"
3,44.5,OC[C@H]1O[C@@H](S)[C@H](O)[C@@H](O)[C@@H]1O [1-Thio-b-D-Glucose]
4,44.6,O=S(=O)(O)CCO [2-Hydroxyethane Sulfonic acid]
5,43.6,O=C(O)[C@H](O)[C@@H](O)[C@H](O)[C@H](O)COP(=O)(O)O [6-Phospho-Gluconic acid]
6,43.9,"Nc1ncnc2c1ncn2[C@@H]1O[C@@H]2COP(=O)(O)O[C@H]2[C@H]1O [Adenosine 3`,5`-Cyclic Monophosphate]"
7,44.2,Nc1ncnc2c1ncn2[C@@H]1O[C@H](CO)[C@@H](OP(=O)(O)O)[C@H]1O [Adenosine 3`-Monophosphate]
8,43.9,Nc1ncnc2c1ncn2[C@@H]1O[C@H](COP(=O)(O)O)[C@@H](O)[C@H]1O [Adenosine 5`-Monophosphate]
9,44.9,O=C(O)C(O)COP(=O)(O)O [D-3-Phospho-Glyceric acid]

# Second part, the compound before the results:
row,Compound,protein melting temperature
1,CCSCCC(N)C(=O)O (racemic) [DL-Ethionine],43.9
2,O=P(O)(O)OC[C@H](O)CO (racemic) [DL-a-Glycerol Phosphate],44.4
3,NCCP(=O)(O)O [2-Aminoethyl Phosphonic acid],43.6
4,Nc1ncnc2c1ncn2[C@@H]1O[C@H](CO)[C@@H](O)[C@H]1OP(=O)(O)O [Adenosine 2`-Monophosphate],43.8
5,CCCCS(=O)(=O)O [Butane Sulfonic acid],44.4
6,NC(=O)OP(=O)(O)O [Carbamyl Phosphate],44.7
7,N[C@@H](CS)C(=O)NCC(=O)O [Cys-Gly],42.9
8,NCCS [Cysteamine],42.8
9,Nc1ccn([C@@H]2O[C@H](CO)[C@@H](O)[C@H]2OP(=O)(O)O)c(=O)n1 [Cytidine 2`-Monophosphate],43.7
10,Nc1ccn([C@@H]2O[C@H](CO)[C@@H](OP(=O)(O)O)[C@H]2O)c(=O)n1 [Cytidine 3`-Monophosphate],45.4
11,O=C(O)C(CO)OP(=O)(O)O [D-2-Phospho-Glyceric acid],44.1
12,N[C@@H]1[C@@H](O)[C@H](O)[C@@H](COP(=O)(O)O)O[C@@H]1O [D-Glucosamine-6-Phosphate],44.1
13,O=C[C@H](O)[C@@H](O)[C@H](O)[C@H](O)COP(=O)(O)O [D-Glucose-6-Phosphate],43.8

# Same assay, conditions: Biolog plate: PM05; compound stock concentration: 10-20 mM, 2 uL in 10 uL reaction
row,protein melting temperature,Compound
1,43.8,CC1(O)CCOC(=O)C1 (racemic) [DL-Mevalonic acid Lactone]
2,44.3,Nc1ccn([C@H]2C[C@H](O)[C@@H](CO)O2)c(=O)n1 [2`-Deoxycytidine]
3,44.4,O=c1ccn([C@H]2C[C@H](O)[C@@H](CO)O2)c(=O)[nH]1 [2`-Deoxyuridine]
4,44.4,"Nc1ncnc2c1ncn2[C@@H]1O[C@@H]2COP(=O)(O)O[C@H]2[C@H]1O [Adenosine 3`,5`-Cyclic Monophosphate]"
5,44.5,O=C(O)CCCC[C@@H]1SC[C@@H]2NC(=O)N[C@@H]21 [D-Biotin]
6,44.8,N[C@H](CCC(=O)O)C(=O)O [D-Glutamic acid]

# Further lines, the compound ahead of its results:
row,Compound,protein melting temperature
1,C[N+](C)(C)CC(O)CC(=O)[O-] (racemic) [DL-Carnitine],43.7
2,Nc1ncnc2c1ncn2[C@H]1C[C@H](O)[C@@H](CO)O1 [2`-Deoxyadenosine],44
3,Nc1nc2c(ncn2[C@H]2C[C@H](O)[C@@H](CO)O2)c(=O)[nH]1 [2`-Deoxyguanosine],43.7
4,O=c1[nH]cnc2c1ncn2[C@H]1C[C@H](O)[C@@H](CO)O1 [2`-Deoxyinosine],43.9
5,NC(=O)c1[nH]cnc1N [(5) 4-Amino-Imidazole-4(5)-Carboxamide],43.7
6,Nc1[nH]cnc2ncnc1-2 [Adenine],44.1
7,Nc1ncnc2c1ncn2[C@@H]1O[C@H](CO)[C@@H](O)[C@H]1O [Adenosine],44.1
8,C[N+](C)(C)CCO [Choline],43.1
9,Nc1ccn([C@@H]2O[C@H](CO)[C@@H](O)[C@H]2O)c(=O)n1 [Cytidine],43.9
10,Nc1cc[nH]c(=O)n1 [Cytosine],44.3
11,C[C@@H](N)C(=O)O [D-Alanine],44
12,N[C@H](CC(=O)O)C(=O)O [D-Aspartic acid],44.4
